Reference: ChEMBL document CHEMBL6177976, “Important Role of Triphenylamine in Modulating the Antibacterial Performance Relationships of Antimicrobial Peptide Mimics by Alkyl Chain Engineering” (J Med Chem, 2025)
The source made the active and inactive calls. The calls are words filed in the database; no cut-off is given here.

Experiments:
[1] = tested on: Cell membrane; assay: Induction of cytoplasmic membrane permeabilization in Staphylococcus aureus assessed as increase in fluorescence intensity at 16 uM incubated for […] by SYTO 9 staining based analysis
[2] = tested on: Staphylococcus aureus; assay: Antibacterial activity against methicillin resistant Staphylococcus aureus assessed as bacterial viability up to 12 uM; type: functional, organism-based
[3] = tested on: Cell membrane; assay: Induction of cytoplasmic membrane permeabilization in Staphylococcus aureus assessed as increase in fluorescence intensity at 16 uM incubated for […] by CLSM analysis
[4] = tested on: Cell membrane; assay: Induction of Inner membrane integrity in Staphylococcus aureus at 128 uM measured for 40 mins T12 dye based analysis; type: subcellular
[5] = tested on: Cell membrane; assay: Induction of Inner membrane integrity in Staphylococcus aureus measured for 40 mins in presence of phosphatidylglycerol by T12 dye based analysis; type: subcellular; details: dose 128.0 µM
[6] = tested on: Cell membrane; assay: Induction of Inner membrane integrity in Staphylococcus aureus measured for 40 mins in presence of cardiolipin by T12 dye based analysis; type: subcellular; details: dose 128.0 µM
[7] = tested on: Escherichia coli; assay: Antibacterial activity against Escherichia coli assessed as change in surface zeta potential at 16 uM incubated for 20 mins; type: functional, organism-based
[8] = tested on: Escherichia coli; assay: Antibacterial activity against Escherichia coli incubated for 90 mins; type: functional, organism-based
[9] = tested on: Cell membrane; assay: Induction of cell membrane damage in Staphylococcus aureus at 20 uM incubated for 60 mins by SEM analysis; type: subcellular
[10] = tested on: Staphylococcus aureus; assay: Antibacterial activity against methicillin resistant Staphylococcus aureus assessed as bacterial viability at 4 uM incubated for 90 mins relative to control; type: functional; details: 1.5 h
[11] = tested on: Escherichia coli; assay: Antibacterial activity against Escherichia coli assessed as effect on bacterial growth incubated for 90 mins; type: functional, organism-based
[12] = tested on: Staphylococcus aureus; assay: Antibacterial activity against Staphylococcus aureus assessed as change in surface zeta potential at 16 uM incubated for 20 mins; type: functional, organism-based
[13] = tested on: HeLa; assay: Cytotoxicity against human HeLa cells at 32 uM incubated for 24 hrs by CCK-8 assay; type: functional, cell-based
[14] = tested on: Staphylococcus aureus; assay: Antibacterial activity against Staphylococcus aureus incubated for 90 mins; type: functional, organism-based; details: dose 10.0 µM
[15] = tested on: HeLa; assay: Cytotoxicity against human HeLa cells at 32 uM measured after 60 mins by Calcein AM assay; type: functional, cell-based
[16] = tested on: Staphylococcus aureus; assay: Antibacterial activity against methicillin resistant Staphylococcus aureus assessed as bacterial viability at 10 uM incubated for 90 mins relative to control; type: functional; details: 1.5 h
[17] = tested on: HeLa; assay: Cytotoxicity against human HeLa cells at 32 uM incubated for 24 hrs by Calcein AM assay; type: functional, cell-based
[18] = tested on: Cell membrane; assay: Induction of cell membrane damage in Staphylococcus aureus assessed as increase in fluorescence intensity at 128 uM measured for 40 mins propidium iodide staining based analysis
[19] = tested on: HeLa; assay: Cytotoxicity against human HeLa cells assessed as dead cells at 32 uM measured after 24 hrs by PI staining based analysis; type: functional, cell-based
[20] = tested on: Cell membrane; assay: Induction of Inner membrane integrity in Staphylococcus aureus at 128 uM measured for 40 mins in presence of phosphatidylglycerol by T12 dye based analysis; type: subcellular
[21] = tested on: Cell membrane; assay: Induction of cell membrane damage in Staphylococcus aureus assessed as decrease in fluorescence intensity at 128 uM measured for 40 mins propidium iodide staining based analysis; type: subcellular
[22] = tested on: Cell membrane; assay: Induction of Inner membrane integrity in Staphylococcus aureus at 128 uM measured for 40 mins in presence of cardiolipin by T12 dye based analysis
[23] = Hemolytic activity in sheep red blood cells assessed as hemolysis; type: toxicity, cell-based, Ovis aries, Erythrocyte

| Compound | Activity [2] | Activity [4] | Activity [5] | Activity [6] | Activity [7] | Activity [8] | Activity [9] | Activity [10] [%] | Activity [11] | Activity [13] | Activity [14] | Activity [15] | Activity [16] [%] | Activity [17] | Activity [18] | Activity [19] | Activity [20] | Activity [22] | other results |
| --- | --- | --- | --- | --- | --- | --- | --- | --- | --- | --- | --- | --- | --- | --- | --- | --- | --- | --- | --- |
| CCCC[N+](C)(C)CCCOc1ccc(/C=C/c2ccc(N(c3ccccc3)c3ccccc3)cc2)cc1.[Br-] | Active | Active | Dose-dependent-effect | Dose-dependent-effect | Active | Active | Active | 2 | inactive | Active | Active | – | – | – | – | – | – | – | Activity [1]: Active; Activity [3]: Active; Activity [12]: Active |
| CCCCCCCC[N+](C)(C)CCCOc1ccc(/C=C/c2ccccc2)cc1.[Br-] | Active | Active | Dose-dependent-effect | Dose-dependent-effect | – | Active | Active | – | – | – | Active | inactive | 4 | inactive | Active | Active | – | – | – |
| CCCCCCCC[N+](C)(C)CCCOc1ccc(/C=C/c2ccc(N(c3ccccc3)c3ccccc3)cc2)cc1.[Br-] | Active | Active | – | – | Active | Active | – | 28 | inactive | – | Active | inactive | – | inactive | – | Active | inactive | inactive | Activity [21]: Active; HC50 [23]: 75 µM |
| CCCC[N+](C)(C)CCCOc1ccc(/C=C/c2ccccc2)cc1.[Br-] | Active | Active | – | – | – | Active | – | – | – | Active | Active | – | 55 | – | Active | – | inactive | inactive | – |
